Assay results published in patent US9775902B2, “Compounds and methods for treatment of stroke” (FIBROGEN, INC, priority 2006, dated 2017).
Where “and” joins values, the source holds several entries; their conditions need not be identical. Equal entries are not always repeated. Where two headings read alike, the source gives them in different places.

Assays:
erythropoietin [1] = assay: Plasma EPO in mice after oral gavage; assay type: in vivo, Swiss Webster mice; conditions: mouse plasma, oral gavage 6-60 mg/kg, six hours
Protocol: (§1) In another series of experiments, male Swiss Webster mice (29-34 g) were administered various compounds of the present invention via oral gavage using a ball-tipped gavage needle. Animals treated by oral gavage received a 4-10 ml/kg volume of either 0.5% carboxymethyl cellulose with or without 0.1% Polysorbate 80 (vehicle control) or various doses (6-60 mg/kg) of a compound of the present invention in 0.5% CMC, with or without 0.1% Polysorbate 80. Blood samples were collected and tissues were processed as described above. Six hours after injection, the animals were anesthetized and exsanguinated.
(§2) Plasma samples were collected in EDTA and heparin coated microtainer tubes. Plasma samples were assayed for erythropoietin and VEGF using commercially-available ELISA kits purchased from R & D Systems (Minneapolis Minn.).

[2] = test system: C57BL/6 mice, permanent occlusion of the MCA; assay: Permanent middle cerebral artery occlusion (pMCAO) in C57BL/6 mice: infarct volume and edema; assay type: in vivo; conditions: C57BL/6 mice pMCAO, 20-60 mg/kg i.v.; for inhibition in vivo at up to 20 mg/kg: Mus musculus, iv, 24 h, 24 hours after MCA occlusion, read-out: Percent Reduction in Infarct Volume
Protocol: The effect of compounds of the present invention on infarct volume and edema associated with stroke was examined in an animal model of ischemic stroke. In these studies, mice were subjected to permanent occlusion of the middle cerebral artery. Mice were anesthetized intraperitoneally with avertin (0.5 mg/g). Mice were then immobilized in a rodent stereotaxic frame (Kopf Instruments, Tujunga Calif.) and maintained with avertin as needed. The surgical area of the head was swabbed with 70% ethanol and a lateral incision was made between the right orbit and the right ear. […] The distal course of the middle cerebral artery (MCA) was visible through the translucent skull. A small burr-hole craniotomy was performed with a micro-drill (Fine Science Tools, Foster City Calif.). The meninges/dura was removed and the MCA was coagulated by bipolar diathermy. The muscle and soft tissue were replaced and the incision closed with vet-bond adhesive (3M, St. Paul Minn.). These studies were performed in two different mouse models of pMCAO as described below.
In one series of experiments, male C57BL/6 mice (25-35 g) were subjected to permanent occlusion of the MCA as described above. Compounds of the present invention were administered by intravenous injection at various times before or after MCA occlusion (see Table 7). Animals administered compound by intravenous injection received a 6 ml/kg volume of either 5% Dextrose with an equimolar amount of Meglumine (vehicle control) or 20-60 mg/kg of a compound of the present invention in 5% dextrose with an equimolar amount of Meglumine. Body temperature of the animals was maintained by use of a heating pad both during and after surgery. Twenty-four hours after MCA occlusion animals were euthanized with CO2 and their brains removed. After removal, the brain was sliced in 7 coronal sections, each 1 mm thick. The sections were placed rostral side down in a petri dish and stained with 1% Triphenyl tetrazolium chloride for 20 minutes at 37° C. for determination of infarct volume. Brain sections were then digitally photographed and analyzed for changes in infarct volume and extent of edema. Infarct volumes were determined by measuring the infarcted (i.e., non-stained) areas of each brain section and multiplying this value by the section thickness. Extent of edema was determined by the net increase in volume of the ipsilateral cortex compared to that of the contralateral cortex of brain sections.
The effect of compounds of the present invention administered at various times following the onset of stroke was examined further as follows. In these studies, changes in infarct volume were measured using an animal model of stroke when compounds of the present invention were administered from 0 to 8 hours following permanent MCA occlusion. In one series of experiments, male C57BL/6 mice (25-35 g) were subjected to permanent occlusion of the MCA as described above. Compound F was administered to the animals by a single intravenous bolus injection at various times up to 5 hours after MCA occlusion (see Table 8 below). Animals administered compound by intravenous injection received a 6 ml/kg volume of either 5% Dextrose with an equimolar amount of NaOH (vehicle control) or 60 mg/kg of Compound F in 5% dextrose with an equimolar amount of NaOH. Body temperature of the animals was maintained by use of a heating pad both during and after surgery. Changes in infarct volumes were determined as described above.
In another set of experiments, male C57BL/6 mice (25-35 g) were subjected to permanent occlusion of the MCA as described above. Compound F was administered by single intravenous bolus injection at various times up to 8 hours after MCA occlusion (see Table 9 below). Animals administered compound by intravenous injection received a 6 ml/kg volume of either 5% Dextrose with an equimolar amount of Meglumine (vehicle control) or 60 mg/kg of Compound F in 5% dextrose with an equimolar amount of Meglumine. […]

erythropoietin (EPO) [3] = assay: EPO expression in Kelly neuroblastoma cells; assay type: cell-based; conditions: for EPO: conditioned media after overnight incubation
Summary of the method: (§3)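 Kelly neuroblastoma cells treated overnight with compound, 1% DMSO as negative control. EPO and VEGF secreted into conditioned media measured by QUANTIKINE immunoassay.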

VEGF [4] = assay: Plasma VEGF in mice after oral gavage; assay type: in vivo, Swiss Webster mice; conditions: mouse plasma, oral gavage 6-60 mg/kg, six hours
Protocol: as §1, §2

erythropoietin (EPO) [5] = assay: EPO expression in Hep3B cells (QUANTIKINE immunoassay of conditioned media); assay type: cell-based, Human; conditions: for Fold Increase Over Control: EPO, vs 1% DMSO control; for EPO: conditioned media after overnight incubation with compound
Summary of the method: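 Confluent Hep3B cells were switched to OPTI-MEM for about 24 h (20% O2, 5% CO2, 37 °C), then treated overnight with compound or 1% DMSO vehicle. EPO secreted into the conditioned medium was measured by QUANTIKINE immunoassay.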

VEGF [6] = assay: Plasma VEGF in mice after intravenous injection; assay type: in vivo, Swiss Webster mice; conditions: mouse plasma, 20 mg/kg i.v., four hours after injection; for fold induction at 20 mg/kg: iv, 4 h, read-out: VEGF Fold Increase
Summary of the method: (§4)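 Male Swiss Webster mice (29-34 g) received 20 mg/kg compound or vehicle by tail-vein injection in 5% dextrose with equimolar NaOH or meglumine. Plasma was collected 4 h later, and EPO and VEGF were measured by ELISA.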

[7] = test system: vascular endothelial growth factor (VEGF); assay: VEGF expression in Kelly neuroblastoma cells; assay type: cell-based; conditions: for VEGF: conditioned media after overnight incubation
Summary of the method: as §3

erythropoietin [8] = assay: Plasma EPO in mice after intravenous injection; assay type: in vivo, Swiss Webster mice; conditions: mouse plasma, 20 mg/kg i.v., four hours after injection; for fold induction at 20 mg/kg: iv, 4 h, read-out: EPO Fold Increase
Summary of the method: as §4

[9] = test system: vascular endothelial growth factor (VEGF); assay: Brain VEGF gene expression in mice after intravenous injection; assay type: in vivo, Swiss Webster mice; conditions: 20 mg/kg i.v., four hours, quantitative real time PCR normalized to 18s RNA, 20 mg/kg
Protocol: The effect of compounds of the present invention on regulation of cytoprotective and neuroprotective gene expression in brain was evaluated. In one series of experiments, male Swiss Webster mice were administered by intravenous injection various compounds of the present invention. Animals treated by intravenous injection received a 6 ml/kg volume of either 5% Dextrose with an equimolar amount of Meglumine (vehicle control) or 20 mg/kg of a compound of the present invention in 5% dextrose with an equimolar amount of Meglumine Animals were euthanized four hours later and their brains placed in RNAlater (Ambion, Austin Tex.) for subsequent analysis. Tissues were homogenized in Trizol (Invitrogen, Carlsbad Calif.) using 5-mm steel beads in a Mixer Mill (Qiagen, Valencia Calif.). RNA was isolated from the Trizol solution and then further purified using RNeasy kit (Qiagen). cDNA was prepared from […] total RNA using Omniscript reverse transcriptase (Qiagen) and random hexamers. Quantitative real time PCR was performed in a 7900HT instrument (Applied Biosystems, Foster City Calif.) using TaqMan Assays-on-Demand (Applied Biosystems). Gene expression levels were normalized to that of 18s RNA.

[10] = compound given 4 hr after occlusion

Structure (SMILES) | EPO Fold Increase (erythropoietin [1]) | EPO (erythropoietin [1]; mouse EPO ELISA kit (**)) | inhibition in vivo at up to 20 mg/kg [2, 10] | EPO Fold Increase (erythropoietin (EPO) [3]) | EPO (erythropoietin (EPO) [3]) | VEGF (VEGF [4]) | VEGF Fold Increase (VEGF [4]) | Fold Increase Over Control (erythropoietin (EPO) [5]) | EPO (erythropoietin (EPO) [5]) | fold induction at 20 mg/kg (VEGF [6]) | VEGF (VEGF [6]) | VEGF Fold Increase [7] | VEGF [7] | fold induction at 20 mg/kg (erythropoietin [8]) | EPO (erythropoietin [8]; mouse EPO ELISA kit (**)) | EPO (erythropoietin [1]; human EPO ELISA kit (*)) | EPO (erythropoietin [8]; human EPO ELISA kit (*)) | further results
O=C(O)CNC(=O)c1nc(Cl)c2ccsc2c1O [Compound L, [(4-Chloro-7-hydroxy-thieno[3,2-c]pyridine-6-carbonyl)-amino]-acetic acid] | 11.81 | 82.7 pg/mL | 48% | 5.2 | 98.2 mIU/ml | 41 pg/mL | 1.32 | 4.2 | 11.1 mIU/ml | 0.43 | 13 pg/mL | 3.3 | 4750.0 pg/mL | 14.6 | 400.3 pg/mL |  |  | 
O=C(O)CNC(=O)c1ncc2cc(Sc3ccccc3)ccc2c1O [Compound E, [(4-Hydroxy-7-phenylsulfanyl-isoquinoline-3-carbonyl)-amino]-acetic acid] |  |  | 9% | 9.0 | 55.8 mIU/ml | 65.4 pg/mL | 1.63 | 17.0 | 127.6 mIU/ml | 1.58 | 66.5 pg/mL | 15.8 | 2495.8 pg/mL |  |  | 17.4 mIU/ml | 122 mIU/ml | Percent Reduction in Edema ([2]; compound given −6 hr): 54%; inhibition in vivo at up to 20 mg/kg ([2]; compound given −6 hr): 51%
O=C(O)CNC(=O)c1nc(Oc2ccccc2F)c2ccccc2c1O [Compound Z, {[1-(2-Fluoro-phenoxy)-4-hydroxy-isoquinoline-3-carbonyl]-amino}-acetic acid] |  |  |  |  |  |  |  |  |  |  |  |  |  |  |  |  |  | VEGF gene expression in brain [9]: 2.2 and 2.1
CC(NC(=O)c1ncc2cc(Oc3ccccc3)ccc2c1O)C(=O)O (stereo not shown) [Compound I, 2-[(4-Hydroxy-7-phenoxy-isoquinoline-3-carbonyl)-amino]-propionic acid] | 16.46 |  |  | 3.4 | 14.8 mIU/ml | 62.7 pg/mL | 2.71 |  | 41.0 mIU/ml | 2.13 | 77.8 pg/mL | 7.2 | 2370.0 pg/mL | 155 |  | 21.4 mIU/ml | 62.1 mIU/ml | 
O=C(O)CNC(=O)c1ncc2cc(Oc3ccc4c(c3)CCO4)ccc2c1O [Compound X, {[7-(2,3-Dihydro-benzofuran-5-yloxy)-4-hydroxy-isoquinoline-3-carbonyl]-amino}-acetic acid] | 5.86 | 41 pg/mL |  | 13.76 | 260.1 mIU/ml | 36 pg/mL | 1.16 | 19.0 | 126.2 mIU/ml | 2.4 | 48 pg/mL | 3.9 | 5751 pg/mL |  | 183 pg/mL |  |  | inhibition in vivo at up to 20 mg/kg ([2]; compound given 0 hr): 36%
O=C(O)CNC(=O)c1ncc2cc(Oc3ccc4c(c3)OCO4)ccc2c1O [Compound O, {[7-(Benzo[1,3]dioxol-5-yloxy)-4-hydroxy-isoquinoline-3-carbonyl]-amino}-acetic acid] | 11.87 | 83.1 pg/mL |  | 7.93 | 149.8 mIU/ml | 46 pg/mL | 1.48 | 14.7 | 97.4 mIU/ml | 2.21 | 64 pg/mL | 3.6 | 5235 pg/mL | 174 | 157 pg/mL |  |  | inhibition in vivo at up to 20 mg/kg ([2]; compound given 0 hr): 31%
O=C(O)CNC(=O)c1ncc2cc(Oc3ccc(F)cc3)ccc2c1O [Compound G, {[7-(4-Fluoro-phenoxy)-4-hydroxy-isoquinoline-3-carbonyl]-amino}-acetic acid] | 123.57 |  | 48% | 5.5 | 34.4 mIU/ml | 110.8 pg/mL | 2.58 | 5.1 | 73.4 mIU/ml | 2.46 | 86.5 pg/mL | 14.4 | 2271.5 pg/mL | 270 |  | 173 mIU/ml | 162 mIU/ml | 
